From the kinase profiling compilation of Christmann-Franck et al. (2016) come the findings set out here.

Sequence of IKBKE (human) (Q14164 whole entry, looked up): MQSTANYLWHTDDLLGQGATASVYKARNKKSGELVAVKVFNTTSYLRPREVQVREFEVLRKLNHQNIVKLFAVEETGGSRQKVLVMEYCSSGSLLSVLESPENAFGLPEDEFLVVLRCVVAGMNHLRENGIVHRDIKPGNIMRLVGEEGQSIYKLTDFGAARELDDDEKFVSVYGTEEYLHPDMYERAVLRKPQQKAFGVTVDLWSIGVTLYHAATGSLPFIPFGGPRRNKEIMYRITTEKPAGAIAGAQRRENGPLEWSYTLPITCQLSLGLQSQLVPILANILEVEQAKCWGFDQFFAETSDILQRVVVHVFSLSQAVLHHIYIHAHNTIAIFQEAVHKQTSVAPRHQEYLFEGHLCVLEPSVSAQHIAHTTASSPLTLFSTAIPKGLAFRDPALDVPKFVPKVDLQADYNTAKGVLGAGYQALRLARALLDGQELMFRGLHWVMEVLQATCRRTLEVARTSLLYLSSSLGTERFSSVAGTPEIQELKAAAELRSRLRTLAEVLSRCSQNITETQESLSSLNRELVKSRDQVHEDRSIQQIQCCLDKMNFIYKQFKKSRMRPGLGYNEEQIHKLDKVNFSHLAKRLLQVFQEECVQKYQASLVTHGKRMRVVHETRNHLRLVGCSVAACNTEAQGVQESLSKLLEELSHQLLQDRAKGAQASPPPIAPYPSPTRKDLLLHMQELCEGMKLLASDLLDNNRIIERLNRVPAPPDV
Sequence of MAP3K10 (human) (Q02779 whole entry, looked up): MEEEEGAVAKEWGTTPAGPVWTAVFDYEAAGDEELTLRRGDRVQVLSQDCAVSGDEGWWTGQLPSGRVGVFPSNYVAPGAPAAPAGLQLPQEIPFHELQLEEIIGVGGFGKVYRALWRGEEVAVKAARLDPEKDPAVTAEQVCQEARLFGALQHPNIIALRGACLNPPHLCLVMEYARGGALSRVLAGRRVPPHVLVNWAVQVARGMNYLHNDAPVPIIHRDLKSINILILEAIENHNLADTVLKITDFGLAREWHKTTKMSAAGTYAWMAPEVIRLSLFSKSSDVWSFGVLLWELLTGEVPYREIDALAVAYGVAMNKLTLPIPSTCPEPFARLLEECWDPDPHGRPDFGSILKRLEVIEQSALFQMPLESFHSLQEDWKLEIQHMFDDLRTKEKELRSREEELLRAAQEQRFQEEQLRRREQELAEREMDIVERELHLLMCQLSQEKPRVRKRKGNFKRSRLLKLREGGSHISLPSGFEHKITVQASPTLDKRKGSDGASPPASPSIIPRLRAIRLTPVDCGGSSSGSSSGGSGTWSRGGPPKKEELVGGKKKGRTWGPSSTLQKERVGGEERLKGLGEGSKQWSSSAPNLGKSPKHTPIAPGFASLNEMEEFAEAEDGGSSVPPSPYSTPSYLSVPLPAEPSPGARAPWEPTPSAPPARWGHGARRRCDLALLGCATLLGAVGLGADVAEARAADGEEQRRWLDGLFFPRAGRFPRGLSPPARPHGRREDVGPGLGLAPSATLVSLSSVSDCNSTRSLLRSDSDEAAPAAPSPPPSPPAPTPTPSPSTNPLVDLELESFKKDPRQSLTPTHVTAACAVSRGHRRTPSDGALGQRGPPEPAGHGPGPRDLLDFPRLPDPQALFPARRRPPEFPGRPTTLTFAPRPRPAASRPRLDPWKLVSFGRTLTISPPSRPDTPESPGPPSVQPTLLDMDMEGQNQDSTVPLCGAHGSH
Sequence of WEE1 (human) (P30291 whole entry, looked up): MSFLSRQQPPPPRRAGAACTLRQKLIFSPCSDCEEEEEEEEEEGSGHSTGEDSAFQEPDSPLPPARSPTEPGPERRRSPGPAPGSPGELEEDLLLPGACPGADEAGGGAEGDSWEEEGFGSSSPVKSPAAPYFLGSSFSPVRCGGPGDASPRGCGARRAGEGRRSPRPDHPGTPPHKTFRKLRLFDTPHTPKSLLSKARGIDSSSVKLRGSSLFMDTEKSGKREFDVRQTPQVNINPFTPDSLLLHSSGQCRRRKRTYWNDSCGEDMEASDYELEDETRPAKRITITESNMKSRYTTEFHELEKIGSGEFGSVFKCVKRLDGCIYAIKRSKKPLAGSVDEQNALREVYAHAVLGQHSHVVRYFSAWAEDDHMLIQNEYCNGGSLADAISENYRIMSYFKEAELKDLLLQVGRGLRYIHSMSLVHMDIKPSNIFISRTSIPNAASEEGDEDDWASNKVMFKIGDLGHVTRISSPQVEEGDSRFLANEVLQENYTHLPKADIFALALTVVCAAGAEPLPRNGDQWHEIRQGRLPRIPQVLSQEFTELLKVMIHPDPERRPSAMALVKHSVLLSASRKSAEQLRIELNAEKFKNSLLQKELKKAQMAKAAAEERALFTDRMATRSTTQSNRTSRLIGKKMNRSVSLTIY

In the first assay the target is PKN2 (human) (UniProt Q16513). The assay can be described thus: radiometric filter-binding kinase assay, Kinase HotSpot. To be noted: compound 0.5 µM; ATP 10 µM.
Regarding `Cn1nc2c3c(cccc31)C(=O)c1ccccc1-2`, the residual activity worked out at 97.3%.

For the molecule `COc1ccc(OC)c2c(=S)c3ccccc3[nH]c12`, the residual activity came out at 105%.

Turning to `O=C1NC(=O)/C(=C\c2ccc3nccnc3c2)S1`, the residual activity was determined as 107%.

For a further assay, the target named is PBK (human) (UniProt Q96KB5). The description is as above. To be noted: compound 0.5 µM; ATP 10 µM.
Sequence of PBK (human) (Q96KB5 whole entry, looked up): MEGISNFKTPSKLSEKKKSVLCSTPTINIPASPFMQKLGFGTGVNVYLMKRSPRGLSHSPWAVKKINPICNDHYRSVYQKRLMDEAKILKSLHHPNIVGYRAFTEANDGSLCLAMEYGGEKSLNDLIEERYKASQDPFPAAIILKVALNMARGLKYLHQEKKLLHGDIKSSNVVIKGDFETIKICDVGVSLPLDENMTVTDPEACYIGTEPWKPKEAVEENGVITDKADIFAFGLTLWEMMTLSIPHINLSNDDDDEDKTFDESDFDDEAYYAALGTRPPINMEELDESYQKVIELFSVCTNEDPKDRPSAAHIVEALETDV
Take `Cn1nc2c3c(cccc31)C(=O)c1ccccc1-2`: the residual activity worked out at 108%.

As to `COc1ccc(OC)c2c(=S)c3ccccc3[nH]c12`, the residual activity turned out to be 107%.

`O=C1NC(=O)/C(=C\c2ccc3nccnc3c2)S1`: the residual activity is 93%.

The next assay addresses EPHB1 (human) (UniProt P54762). The description is as above. To be noted: compound 0.5 µM; ATP 10 µM.
On to `Cn1nc2c3c(cccc31)C(=O)c1ccccc1-2`, for which the residual activity came out at 94.6%.

With `COc1ccc(OC)c2c(=S)c3ccccc3[nH]c12`, the residual activity came out at 87.1%.

With `O=C1NC(=O)/C(=C\c2ccc3nccnc3c2)S1`, the residual activity came out at 93.4%.

The next assay has as its target WEE1 (human) (UniProt P30291). The assay is described as above. As to conditions: compound 0.5 µM; ATP 10 µM.
In the case of `Cn1nc2c3c(cccc31)C(=O)c1ccccc1-2`, the residual activity was 92.3%.

Consider `COc1ccc(OC)c2c(=S)c3ccccc3[nH]c12`, for which the residual activity came out at 102%.

Regarding `O=C1NC(=O)/C(=C\c2ccc3nccnc3c2)S1`, the residual activity was 83.1%.

The target of the next assay is ITK (human) (UniProt Q08881). Described as above. As to conditions: compound 0.5 µM; ATP 10 µM.
`Cn1nc2c3c(cccc31)C(=O)c1ccccc1-2`: the residual activity was 88.3%.

Regarding `COc1ccc(OC)c2c(=S)c3ccccc3[nH]c12`, the residual activity worked out at 101%.

As for `O=C1NC(=O)/C(=C\c2ccc3nccnc3c2)S1`, the residual activity came to 91.2%.

For the next assay, the target named is PRKD2 (human) (UniProt Q9BZL6). Described as above. As to conditions: compound 0.5 µM; ATP 10 µM.
Consider `Cn1nc2c3c(cccc31)C(=O)c1ccccc1-2`, for which the residual activity was determined as 77%.

As to `COc1ccc(OC)c2c(=S)c3ccccc3[nH]c12`, the residual activity was 88.1%.

Regarding `O=C1NC(=O)/C(=C\c2ccc3nccnc3c2)S1`, the residual activity came out at 104%.

The target of another assay is CHEK1 (human) (UniProt O14757). Described as above. As to conditions: compound 0.5 µM; ATP 10 µM.
`Cn1nc2c3c(cccc31)C(=O)c1ccccc1-2`: the residual activity turned out to be 93.7%.

Regarding `COc1ccc(OC)c2c(=S)c3ccccc3[nH]c12`, the residual activity is 92.7%.

`O=C1NC(=O)/C(=C\c2ccc3nccnc3c2)S1`: the residual activity stood at 99.4%.

The next assay has as its target CDK6 CCND3 (human) (UniProt P30281+Q00534). The assay is described as above. To be noted: compound 0.5 µM; ATP 10 µM.
In the case of `Cn1nc2c3c(cccc31)C(=O)c1ccccc1-2`, the residual activity is 101%.

Consider `COc1ccc(OC)c2c(=S)c3ccccc3[nH]c12`, for which the residual activity came to 102%.

In the case of `O=C1NC(=O)/C(=C\c2ccc3nccnc3c2)S1`, the residual activity is 95.8%.

The target of another assay is CSNK1D (human) (UniProt P48730). The assay is described as above. To be noted: compound 0.5 µM; ATP 10 µM.
Sequence of CSNK1D (human) (P48730 whole entry, looked up): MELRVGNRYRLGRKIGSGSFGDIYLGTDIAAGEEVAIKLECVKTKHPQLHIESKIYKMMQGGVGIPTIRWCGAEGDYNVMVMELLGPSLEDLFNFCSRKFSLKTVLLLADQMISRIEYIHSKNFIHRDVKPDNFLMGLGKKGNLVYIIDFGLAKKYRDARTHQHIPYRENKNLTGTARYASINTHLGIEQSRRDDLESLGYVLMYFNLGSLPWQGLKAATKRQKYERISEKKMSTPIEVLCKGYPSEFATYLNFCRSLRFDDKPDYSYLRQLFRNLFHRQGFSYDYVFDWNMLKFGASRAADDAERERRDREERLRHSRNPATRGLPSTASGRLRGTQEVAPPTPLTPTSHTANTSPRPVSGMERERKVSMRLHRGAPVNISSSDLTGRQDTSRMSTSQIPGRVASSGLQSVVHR
With `Cn1nc2c3c(cccc31)C(=O)c1ccccc1-2`, the residual activity turned out to be 20.8%.

Turning to `COc1ccc(OC)c2c(=S)c3ccccc3[nH]c12`, the residual activity is 101%.

With `O=C1NC(=O)/C(=C\c2ccc3nccnc3c2)S1`, the residual activity was determined as 96.3%.

The target in another assay is FES (human) (UniProt P07332). The description is as above. To be noted: compound 0.5 µM; ATP 10 µM.
Sequence of FES (human) (P07332 whole entry, looked up): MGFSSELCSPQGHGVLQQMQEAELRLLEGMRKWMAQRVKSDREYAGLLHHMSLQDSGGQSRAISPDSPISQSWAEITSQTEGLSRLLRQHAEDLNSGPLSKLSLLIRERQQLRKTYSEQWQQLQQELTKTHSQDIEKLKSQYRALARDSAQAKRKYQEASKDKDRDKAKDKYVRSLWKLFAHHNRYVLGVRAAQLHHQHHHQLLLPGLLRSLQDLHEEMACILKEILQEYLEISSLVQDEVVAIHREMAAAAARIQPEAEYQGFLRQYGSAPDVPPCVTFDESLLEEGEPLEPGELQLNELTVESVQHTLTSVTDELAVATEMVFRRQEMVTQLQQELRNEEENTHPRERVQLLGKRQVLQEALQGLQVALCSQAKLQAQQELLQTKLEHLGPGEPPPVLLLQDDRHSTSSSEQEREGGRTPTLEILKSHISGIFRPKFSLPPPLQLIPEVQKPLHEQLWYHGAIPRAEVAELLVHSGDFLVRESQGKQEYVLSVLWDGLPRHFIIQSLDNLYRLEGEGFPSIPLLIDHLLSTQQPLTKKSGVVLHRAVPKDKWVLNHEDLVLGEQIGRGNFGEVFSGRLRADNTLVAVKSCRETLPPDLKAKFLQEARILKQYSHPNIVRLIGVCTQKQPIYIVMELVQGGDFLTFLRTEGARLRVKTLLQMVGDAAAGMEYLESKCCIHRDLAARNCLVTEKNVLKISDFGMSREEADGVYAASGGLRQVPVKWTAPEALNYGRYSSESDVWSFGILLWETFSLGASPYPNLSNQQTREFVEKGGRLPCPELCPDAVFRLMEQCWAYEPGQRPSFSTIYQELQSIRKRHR
Regarding `Cn1nc2c3c(cccc31)C(=O)c1ccccc1-2`, the residual activity came to 94.4%.

Regarding `COc1ccc(OC)c2c(=S)c3ccccc3[nH]c12`, the residual activity worked out at 102%.

On to `O=C1NC(=O)/C(=C\c2ccc3nccnc3c2)S1`, for which the residual activity worked out at 96.4%.

A further assay has as its target MINK1 (human) (UniProt Q8N4C8). Described as above. As to conditions: compound 0.5 µM; ATP 10 µM.
`Cn1nc2c3c(cccc31)C(=O)c1ccccc1-2`: the residual activity turned out to be 92.3%.

As to `COc1ccc(OC)c2c(=S)c3ccccc3[nH]c12`, the residual activity was 95.9%.

With `O=C1NC(=O)/C(=C\c2ccc3nccnc3c2)S1`, the residual activity was 88.3%.

A further assay concerns the target IKBKE (human) (UniProt Q14164). The description is as above. To be noted: compound 0.5 µM; ATP 10 µM.
In the case of `Cn1nc2c3c(cccc31)C(=O)c1ccccc1-2`, the residual activity was 92.3%.

Take `COc1ccc(OC)c2c(=S)c3ccccc3[nH]c12`: the residual activity worked out at 104%.

For the molecule `O=C1NC(=O)/C(=C\c2ccc3nccnc3c2)S1`, the residual activity stood at 99.5%.

In a further assay the target is PAK1 (human) (UniProt Q13153). The assay is described as above. To be noted: compound 0.5 µM; ATP 10 µM.
Turning to `Cn1nc2c3c(cccc31)C(=O)c1ccccc1-2`, the residual activity came out at 98.5%.

For the molecule `COc1ccc(OC)c2c(=S)c3ccccc3[nH]c12`, the residual activity worked out at 89.2%.

`O=C1NC(=O)/C(=C\c2ccc3nccnc3c2)S1`: the residual activity was determined as 96%.

The target of the next assay is WNK2 (human) (UniProt Q9Y3S1). The description is as above. To be noted: compound 0.5 µM; ATP 10 µM.
For `Cn1nc2c3c(cccc31)C(=O)c1ccccc1-2`, the residual activity amounted to 104%.

Regarding `COc1ccc(OC)c2c(=S)c3ccccc3[nH]c12`, the residual activity was 89.8%.

As to `O=C1NC(=O)/C(=C\c2ccc3nccnc3c2)S1`, the residual activity was 115%.

In a further assay the target is PRKD1 (human) (UniProt Q15139). The description is as above. To be noted: compound 0.5 µM; ATP 10 µM.
Take `Cn1nc2c3c(cccc31)C(=O)c1ccccc1-2`: the residual activity came out at 69.3%.

Turning to `COc1ccc(OC)c2c(=S)c3ccccc3[nH]c12`, the residual activity was found to be 99.8%.

For `O=C1NC(=O)/C(=C\c2ccc3nccnc3c2)S1`, the residual activity was found to be 94.8%.

In a further assay the target is MARK4 (human) (UniProt Q96L34). Described as above. To be noted: compound 0.5 µM; ATP 10 µM.
Sequence of MARK4 (human) (Q96L34 whole entry, looked up): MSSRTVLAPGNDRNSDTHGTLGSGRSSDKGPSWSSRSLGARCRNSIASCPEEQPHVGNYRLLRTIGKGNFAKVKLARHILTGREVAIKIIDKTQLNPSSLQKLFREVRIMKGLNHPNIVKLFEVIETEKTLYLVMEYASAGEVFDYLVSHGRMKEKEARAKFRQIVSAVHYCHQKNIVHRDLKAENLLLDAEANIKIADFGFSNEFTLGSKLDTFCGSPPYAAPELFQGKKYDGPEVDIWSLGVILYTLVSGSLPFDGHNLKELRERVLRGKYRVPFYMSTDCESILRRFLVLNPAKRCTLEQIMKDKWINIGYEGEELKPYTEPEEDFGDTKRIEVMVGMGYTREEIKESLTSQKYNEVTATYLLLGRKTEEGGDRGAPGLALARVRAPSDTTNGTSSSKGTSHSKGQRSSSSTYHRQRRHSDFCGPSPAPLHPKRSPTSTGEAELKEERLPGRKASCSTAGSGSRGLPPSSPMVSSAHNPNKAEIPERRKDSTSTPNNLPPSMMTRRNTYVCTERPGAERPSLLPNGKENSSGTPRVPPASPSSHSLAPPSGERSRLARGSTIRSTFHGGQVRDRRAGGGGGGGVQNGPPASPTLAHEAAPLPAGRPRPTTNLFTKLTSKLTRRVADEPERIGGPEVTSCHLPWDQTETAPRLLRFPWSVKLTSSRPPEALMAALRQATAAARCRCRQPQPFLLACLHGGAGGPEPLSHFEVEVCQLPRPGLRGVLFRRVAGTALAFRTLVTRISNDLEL
For `Cn1nc2c3c(cccc31)C(=O)c1ccccc1-2`, the residual activity came to 91.1%.

As for `COc1ccc(OC)c2c(=S)c3ccccc3[nH]c12`, the residual activity came out at 95.7%.

For the molecule `O=C1NC(=O)/C(=C\c2ccc3nccnc3c2)S1`, the residual activity turned out to be 89.9%.

Another assay has as its target MAP3K10 (human) (UniProt Q02779). Described as above. As to conditions: compound 0.5 µM; ATP 10 µM.
Take `Cn1nc2c3c(cccc31)C(=O)c1ccccc1-2`: the residual activity came to 91.4%.

Consider `COc1ccc(OC)c2c(=S)c3ccccc3[nH]c12`, for which the residual activity worked out at 92.8%.

For the molecule `O=C1NC(=O)/C(=C\c2ccc3nccnc3c2)S1`, the residual activity came to 94.2%.

In the next assay the target is CSNK1G1 (human) (UniProt Q9HCP0). The assay is described as above. As to conditions: compound 0.5 µM; ATP 10 µM.
Sequence of CSNK1G1 (human) (Q9HCP0 whole entry, looked up): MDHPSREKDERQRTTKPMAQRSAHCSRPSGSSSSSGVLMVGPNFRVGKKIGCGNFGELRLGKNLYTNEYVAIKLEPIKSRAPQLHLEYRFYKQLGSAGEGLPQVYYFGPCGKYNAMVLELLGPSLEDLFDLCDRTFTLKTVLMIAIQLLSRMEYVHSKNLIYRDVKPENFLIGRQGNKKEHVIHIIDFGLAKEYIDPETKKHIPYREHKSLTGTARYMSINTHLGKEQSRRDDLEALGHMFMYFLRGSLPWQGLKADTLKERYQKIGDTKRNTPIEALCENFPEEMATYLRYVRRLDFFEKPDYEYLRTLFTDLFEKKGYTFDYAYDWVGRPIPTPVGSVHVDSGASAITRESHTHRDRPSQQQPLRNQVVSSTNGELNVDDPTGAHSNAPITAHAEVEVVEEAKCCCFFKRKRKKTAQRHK
With `Cn1nc2c3c(cccc31)C(=O)c1ccccc1-2`, the residual activity stood at 102%.

As to `COc1ccc(OC)c2c(=S)c3ccccc3[nH]c12`, the residual activity was 120%.

Consider `O=C1NC(=O)/C(=C\c2ccc3nccnc3c2)S1`, for which the residual activity was found to be 101%.

The next assay has as its target EPHA8 (human) (UniProt P29322). Described as above. As to conditions: compound 0.5 µM; ATP 10 µM.
As to `Cn1nc2c3c(cccc31)C(=O)c1ccccc1-2`, the residual activity was found to be 99.4%.

Take `COc1ccc(OC)c2c(=S)c3ccccc3[nH]c12`: the residual activity came to 93.8%.

Take `O=C1NC(=O)/C(=C\c2ccc3nccnc3c2)S1`: the residual activity came out at 94.2%.

Another assay has as its target ABL2 (human) (UniProt P42684). Described as above. To be noted: compound 0.5 µM; ATP 10 µM.
Consider `Cn1nc2c3c(cccc31)C(=O)c1ccccc1-2`, for which the residual activity is 97.8%.

For the molecule `COc1ccc(OC)c2c(=S)c3ccccc3[nH]c12`, the residual activity is 92.5%.

On to `O=C1NC(=O)/C(=C\c2ccc3nccnc3c2)S1`, for which the residual activity was determined as 96.8%.

A further assay deals with INSRR (human) (UniProt P14616). Described as above. As to conditions: compound 0.5 µM; ATP 10 µM.
With `Cn1nc2c3c(cccc31)C(=O)c1ccccc1-2`, the residual activity amounted to 82.7%.

As to `COc1ccc(OC)c2c(=S)c3ccccc3[nH]c12`, the residual activity is 88.7%.

For the molecule `O=C1NC(=O)/C(=C\c2ccc3nccnc3c2)S1`, the residual activity was found to be 111%.

Usually residual activity stands for the signal under treatment as a percentage of the control signal.
